Where a SMILES comes first, the peptide text is derived from it. Bridges are numbered along the chain shown (N, C = ends).

The values below come from patent US8343760B2, “p53 activator peptides” (University of Maryland, Baltimore, priority 2008, dated 2013).

In one assay the test system is p53 mutated SW480 cells. The assay can be described thus: Tumor cell killing, MTS OD and Trypan blue cell count, SW480. Conditions: SW480, added daily for three days.
The test system of assay [1] is p53 wild type HCT116 cells. In words: Tumor cell killing, MTS OD and Trypan blue cell count, HCT116. Conditions: for reduction in HCT116 cell count: HCT116, added daily for three days; for reduction in cell viability as measured by MTS OD / reduction in cell number (Trypan blue cell count): HCT116, single dose, peptides 100 μg/ml, Nutlin-3 10 μg/ml; for reduction in cell viability as measured by MTS OD: after 3 days; for reduction in cell number (Trypan blue cell count): assessed after 3 days.
Experimental: (§1) Nutlin-3, a known small molecule inhibitor of the p53-MDM2 interaction, was given at 10 μg/ml as a positive control. Briefly, HCT116 cells (10,000/well) were plated overnight in McCoy's 5A modified medium (1×) supplemented with 1% pen-strep and 10% heat inactivated FBS. SW480 cells (10,000/well) were plated overnight in DMEM 1× medium, 1% pen-strep and 10% heat inactivated FBS (all reagents were from GIBCO). Cells were treated the next day with the indicated compound and then OD and cell count assessed after 3 days (left column) or peptides were added every day for three day and then OD and cell count were assessed (right column). OD was measured with the MTS kit (Cell titer 96 aqueous non-radioactive cell proliferation assay, Promega). Trypan blue incorporation was used to determine number of cells alive and dead.

A further assay addresses T1, synMDM2 (Homo sapiens, UniProt Q00987).
T1 construct: synthetic MDM2—comprising amino acids 25-109 of the full length MDM2 protein; made in house; host or cells: chemical synthesis (no expression host)
In words: Trp fluorescence spectroscopy on addition of synMDM2. The assay is classed as binding. The source says: Stoppin-1 was characterized using CD and fluorescence spectroscopy. […] The CD results are entirely consistent with the known structural features of BmBKTx1. As is the case with ^(15-29)p53, the only Trp residue engineered into stoppin-1 is fully solvent exposed in aqueous solution (buffer) as evidenced by the Trp fluorescence maximum (356 nm).
Stoppin-1 was derivatived by making five additional substitutions in its C-terminal region, resulting in a heavily cationic new peptide termed stoppin-2 of the following amino acid sequence: […] (SEQ ID NO:2). Specifically, Ser^18, Ser^19, Ile^23, Asn^24, and Ser^25 (BmBKTx1 numbering) were replaced with Arg, generating a miniprotein with eight cationic residues (including three existing Lys residues) clustered in the C-terminal β-hairpin region. Stoppin-2 was then chemically synthesized and oxidatively folded using procedures previously described herein. The correct folding of stoppin-2 was verified by disulfide mapping using trypsin/CNBr fragmentation coupled with LC-MS analysis. The interaction of stoppin-2 with MDM2/MDMX was characterized using fluorescence spectroscopy.

Assay [2] concerns the target T2, synMDMX (synthetic MDMX, amino acids 24-108 of the full length MDMX protein) (Homo sapiens, UniProt O15151).
T2 construct: synthetic MDMX—comprising amino acids 24-108 of the full length MDMX protein; made in house; host or cells: chemical synthesis (no expression host)
T2 sequence (O15151 24-108): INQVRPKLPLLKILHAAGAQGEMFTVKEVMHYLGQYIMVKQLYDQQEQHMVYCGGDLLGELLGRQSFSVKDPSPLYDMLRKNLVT
The assay can be described thus: SPR-based competition binding assay, synMDMX vs immobilized 15-29p53. The following applies: stoppin-1 relative to 15-29p53. How it is done: Each curve is the mean of four independent measurements at 25° C. in 10 mM HEPES, 150 mM NaCl, 0.005% surfactant P20, pH 7.4. […] Specifically, ^(15-29)p53 was immobilized on a CM5 sensor chip for kinectic analysis of a fixed concentration of ^synMDM2 (50 nM) or ^synMDMX (100 nM) pre-incubated with varying concentrations of stoppin-1 at room temperature. ^(15-29)p53 was used as a control in the competition binding assay. […] To facilitate comparison, several other compounds were included in the panel: ^(15-29)p53, ^(17-28)p53, and Nutlin-3 (a racemic mixture of Nutlin-3a and Nutlin-3b).

T1 sequence (Q00987 25-109): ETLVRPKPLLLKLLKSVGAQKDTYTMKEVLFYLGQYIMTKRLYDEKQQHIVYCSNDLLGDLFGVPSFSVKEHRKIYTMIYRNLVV
Experimental for p53 mutated SW480 cells: as §1

Take `COc1ccc(C2=N[C@@H](c3ccc(Cl)cc3)[C@@H](c3ccc(Cl)cc3)N2C(=O)N2CCNC(=O)C2)c(OC(C)C)c1` [Nutlin-3, reference compound]: the “effect against SW480” value with p53 mutated SW480 cells is “ineffective”. Moreover, in assay [1], the “reduction in HCT116 cell count” value is reported as about 90%, the “reduction in cell viability as measured by MTS OD” value is listed as “reduction in HTC cell viability” and the “reduction in cell number (Trypan blue cell count)” value (shortened to “reduction in cell number”) was “over 80%”.
Consider “CYSFDCLWKCLAMGFRRGKCRRRKCKC [stoppin-2, heavily cationic derivative of stoppin-1 with five Arg substitutions]”, for which the “effect against SW480” value with p53 mutated SW480 cells is recorded as “ineffective”. For the same molecule, in assay [1], the “reduction in HCT116 cell count” value is “killed the cells quantitatively”, the “reduction in cell viability as measured by MTS OD” value was “reduction in HTC cell viability” and the “reduction in cell number” value is on record as about 70%. The “shift of Trp fluorescence maximum on addition of synMDM2 (from-to)” value in the assay with synMDM2 is listed as 356 nm to 328 nm.
Regarding `CC[C@H](C)[C@@H]1NC(=O)[C@@H]2CSSC[C@H](N)C(=O)N[C@@H](Cc3ccc(O)cc3)C(=O)N[C@@H](CO)C(=O)N[C@@H](Cc3ccccc3)C(=O)N[C@@H](CC(=O)O)C(=O)N[C@H]3CSSC[C@H](NC(=O)[C@H](CCCCN)NC(=O)[C@H](CO)NC(=O)[C@H](CC(N)=O)NC1=O)C(=O)N[C@@H](CCCCN)C(=O)N[C@H](C(=O)O)CSSC[C@H](NC(=O)[C@H](CCCCN)NC(=O)[C@H](Cc1c[nH]c4ccccc14)NC(=O)[C@H](CC(C)C)NC3=O)C(=O)N[C@@H](CC(C)C)C(=O)N[C@@H](C)C(=O)N[C@@H](CCSC)C(=O)NCC(=O)N[C@@H](Cc1ccccc1)C(=O)N[C@@H](CO)C(=O)N[C@@H](CO)C(=O)NCC(=O)N[C@@H](CCCCN)C(=O)N2` [stoppin-1] (H-CYSFDCLWKCLAMGFSSGKCINSKCKC-OH; disulfide 1-20, 6-25, 10-27), the “effect against SW480” value in the assay with p53 mutated SW480 cells is listed as “ineffective”. For the same molecule, the “fold lower binding affinity for synMDMX than 15-29p53” value in assay [2] was “approximately 4 fold”. Besides, in assay [1], the “reduction in cell number” value was “minimal”. Further, on synMDM2, the “shift of Trp fluorescence maximum on addition of synMDM2 (from-to)” value is reported as 356 nm to 328 nm. Further, at synMDM2 (from 356 nm to 328 nm), the “shift of Trp fluorescence on addition of synMDM2” value is 28 nm.
